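Exposure lasted 48 hours, with cells grown in 96-well plates and compounds tested at five concentrations. GI50 = concentration required for 50% inhibition of growth.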 The source made the active and inactive calls. No stated cut-off is given here; in the data, active = GI50 up to about 1.1 µM and inactive = higher.
How the values were obtained:
Assay in all cases: inhibition of tumour cell growth, NCI panel, 48 h
[1] = tested on: HT-29
[2] = tested on: UO-31
[3] = tested on: LOX IMVI
[4] = tested on: RPMI-8226
[5] = tested on: OVCAR-4
[6] = tested on: OVCAR-8
[7] = tested on: HOP-62
[8] = tested on: T47D
[9] = tested on: BT-549
[10] = tested on: HCT-15
[11] = tested on: SNB-75
[12] = tested on: NCI-H23
[13] = tested on: K562
[14] = tested on: COLO 205
[15] = tested on: U-251
[16] = tested on: Malme-3M
[17] = tested on: MOLT-4
[18] = tested on: HL-60
[19] = tested on: HOP-92

Compound | GI50 [1] | GI50 [2] | GI50 [3] | GI50 [4] | GI50 [5] | GI50 [6] | GI50 [7] | GI50 [8] | GI50 [9] | GI50 [10] [µM] | GI50 [11] | GI50 [12] | GI50 [13] | GI50 [14] | GI50 [15] | GI50 [16] | GI50 [17] | GI50 [18] | GI50 [19]
CC(C)=CCNc1ncnc2c1c(C#N)cn2C1OC(CO)C(O)C1O (stereo not drawn) | 12.3 µM (inactive) | 32.8 µM (inactive) | > 79.8 µM (inactive) | 3.56 µM (inactive) | 1.1 µM (active) | 50.7 µM (inactive) | 53.1 µM (inactive) | 0.0386 µM (active) | > 100 µM (inactive) | 0.603 | 75.7 µM (inactive) | > 56.5 µM (inactive) | 3.86 µM (inactive) | 0.716 µM (active) | > 67.5 µM (inactive) | > 77.6 µM (inactive) | 65.2 µM (inactive) | 9.12 µM (inactive) | 24.3 µM (inactive)
CCOC(=O)C(C(=S)Nc1ccccc1)c1nn2c(=O)cc(C)nc2s1 (stereo not drawn) | 19.3 µM (inactive) | 22.2 µM (inactive) | 14.4 µM (inactive) | 26.3 µM (inactive) | 30.8 µM (inactive) | 23.6 µM (inactive) | 65 µM (inactive) | 25.5 µM (inactive) | 25.2 µM (inactive) | 27.7 | 16.9 µM (inactive) | 35.6 µM (inactive) | 20.9 µM (inactive) | 20.1 µM (inactive) | 26.7 µM (inactive) | 22.9 µM (inactive) | 25 µM (inactive) | 20.5 µM (inactive) | 16.4 µM (inactive)
CC(C)=CC(=O)C[C@H]1C(=O)O[C@@H]2C[C@H]3C(C)=CC(=O)[C@@H](O)[C@]3(C)[C@H]3[C@@]4(O)OC[C@]32[C@@H]1[C@@H](C)[C@H]4O | < 0.0107 µM (active) | 0.0605 µM (active) | < 0.01 µM (active) | < 0.01 µM (active) | 0.0364 µM (active) | < 0.01 µM (active) | 0.0227 µM (active) | < 0.0111 µM (active) | 0.0213 µM (active) | 0.0382 | 0.0148 µM (active) | < 0.01 µM (active) | < 0.01 µM (active) | 0.125 µM (active) | < 0.01 µM (active) | < 0.01 µM (active) | < 0.01 µM (active) | < 0.01 µM (active) | 0.0216 µM (active)
O=C1CC(NC2CC(=O)c3c(Br)sc(Br)c32)c2c(Br)sc(Br)c21 (stereo not drawn) | 2.84 µM (inactive) | 2.24 µM (inactive) | 1.92 µM (inactive) | 0.597 µM (active) | 8.51 µM (inactive) | 3.26 µM (inactive) | 2.99 µM (inactive) | 2.46 µM (inactive) | 14.1 µM (inactive) | 2.94 | 15.7 µM (inactive) | 9.48 µM (inactive) | 2.55 µM (inactive) | 3.04 µM (inactive) | 1.82 µM (inactive) | 2.29 µM (inactive) | 2.26 µM (inactive) | 2.46 µM (inactive) | 6 µM (inactive)
Cc1ccc(/N=C2N=C(Cl)/C(=C\c3ccco3)N\2)cc1 | > 100 µM (inactive) | > 100 µM (inactive) | > 100 µM (inactive) | > 87.1 µM (inactive) | > 100 µM (inactive) | > 100 µM (inactive) | > 100 µM (inactive) | > 100 µM (inactive) | > 100 µM (inactive) | > 100 | > 100 µM (inactive) | > 100 µM (inactive) | > 100 µM (inactive) | > 100 µM (inactive) | > 100 µM (inactive) | > 100 µM (inactive) | > 91.8 µM (inactive) | > 100 µM (inactive) | > 100 µM (inactive)
Cc1nc2ccc(S(=O)(=O)O)cc2c(=O)n1-c1ccc(C(=O)NN2C(=O)C(Cl)C2c2ccccc2O)cc1 (stereo not drawn) | > 100 µM (inactive) | > 100 µM (inactive) | > 100 µM (inactive) | > 100 µM (inactive) | > 100 µM (inactive) | > 100 µM (inactive) | 53.5 µM (inactive) | > 100 µM (inactive) | > 100 µM (inactive) | > 100 | > 100 µM (inactive) | > 100 µM (inactive) | > 100 µM (inactive) | > 100 µM (inactive) | > 100 µM (inactive) | > 100 µM (inactive) | > 100 µM (inactive) | > 100 µM (inactive) | > 100 µM (inactive)
O=C(/C(=C\I)c1ccccc1)c1ccccc1 | 1.93 µM (inactive) | 7.78 µM (inactive) | 12.7 µM (inactive) | 2.48 µM (inactive) | 6.7 µM (inactive) | 4.32 µM (inactive) | 4.19 µM (inactive) | 4.14 µM (inactive) | 16.3 µM (inactive) | 3.33 | 9.42 µM (inactive) | 9.89 µM (inactive) | 3.31 µM (inactive) | 3.63 µM (inactive) | 2.75 µM (inactive) | 7.31 µM (inactive) | 18.3 µM (inactive) | 0.458 µM (active) | 13.7 µM (inactive)
